Measurements from article PMC8583042, “New Hybrid Compounds Combining Fragments of Usnic Acid and Thioether Are Inhibitors of Human Enzymes TDP1, TDP2 and PARP1” (International Journal of Molecular Sciences, 2021).
Read-outs that look alike come from different tables or passages of the source.

Assays:
TDP2 = biological target: T1, TDP2 (Homo sapiens, UniProt O95551); assay: Gel-based TDP2 activity assay; assay type: biochemical
T1 construct: His-tag (N); made in house; host or cells: E. coli BL21 (DE3)
T1 sequence (O95551 1-362): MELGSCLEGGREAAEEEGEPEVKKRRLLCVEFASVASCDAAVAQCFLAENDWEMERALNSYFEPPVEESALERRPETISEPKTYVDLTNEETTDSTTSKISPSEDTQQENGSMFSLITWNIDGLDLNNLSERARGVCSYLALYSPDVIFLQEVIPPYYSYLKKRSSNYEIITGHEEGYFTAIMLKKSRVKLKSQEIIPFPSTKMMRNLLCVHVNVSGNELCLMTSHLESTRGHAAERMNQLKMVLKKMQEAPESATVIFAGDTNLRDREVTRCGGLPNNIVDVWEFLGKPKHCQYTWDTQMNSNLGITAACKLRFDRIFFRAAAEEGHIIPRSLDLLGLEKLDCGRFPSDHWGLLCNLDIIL
Protocol: To study the ability of the investigated compounds to inhibit TDP2 activity, we separated the TDP2 reaction products under denaturing conditions in polyacrylamide gel (PAGE). We tested the ability of TDP2 to eliminate tyrosine residues from the 5’ end of the oligonucleotide substrate in the absence and presence of TDP1 inhibitors. […] The residual TDP2 activity for the best four TDP1 inhibitors, 7g,h and 10a,b, was from 30 to 60%, depending on the tested compound, at a 1 mM concentration of the inhibitor. We tested the ability of compounds 7g,h and 10a,b to inhibit TDP2 activity at 0.2 mM and 0.5 mM concentrations (Figure S26).
The recombinant N-terminally His-tagged TDP2 was expressed in E. coli BL21 (DE3) cells. The plasmid pLATE-31-TDP2 expression vector was constructed as follows. cDNA encoding the TDP2 protein was cloned in the pLATE-31 expression vector using a LICator LIC Cloning and Expression System (Thermo Scientific, Waltham, MA, USA). […]
Oligonucleotide 5′- tyrosine -AAC GTC AGG GTC TTC C- FAM -3′ was synthesized as described above and used for the indication of TDP2 enzyme activity in polyacrylamide gel. […] A Typhoon FLA 9500 phosphorimager (GE Healthcare, Boston, MA, USA) was used for gel scanning and imaging, and the data were analyzed with QuantityOne 4.6.7 software (Bio-Rad Laboratories, Inc., Hercules, CA, USA).

TDP1 = biological target: T2, TDP1 (Homo sapiens, UniProt Q9NUW8); assay: Real-time fluorescence assay of TDP1 activity; assay type: biochemical
T2 construct: made in house; host or cells: E. coli
T2 sequence (Q9NUW8 whole entry): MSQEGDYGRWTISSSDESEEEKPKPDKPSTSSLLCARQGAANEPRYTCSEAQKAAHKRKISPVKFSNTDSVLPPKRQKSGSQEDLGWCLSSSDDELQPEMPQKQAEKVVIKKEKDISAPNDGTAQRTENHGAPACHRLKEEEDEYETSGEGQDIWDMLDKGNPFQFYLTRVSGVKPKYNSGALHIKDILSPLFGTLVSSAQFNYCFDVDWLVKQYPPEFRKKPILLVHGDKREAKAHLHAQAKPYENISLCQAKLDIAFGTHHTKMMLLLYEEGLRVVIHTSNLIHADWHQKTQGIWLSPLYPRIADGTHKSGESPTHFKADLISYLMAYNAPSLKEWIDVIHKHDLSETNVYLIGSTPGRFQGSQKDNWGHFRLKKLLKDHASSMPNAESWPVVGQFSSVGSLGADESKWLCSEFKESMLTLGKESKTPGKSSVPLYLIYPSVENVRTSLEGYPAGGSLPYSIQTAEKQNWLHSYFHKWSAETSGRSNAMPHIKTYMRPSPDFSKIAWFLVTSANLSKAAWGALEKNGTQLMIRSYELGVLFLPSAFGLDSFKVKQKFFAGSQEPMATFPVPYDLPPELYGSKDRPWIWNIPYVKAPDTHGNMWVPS
From the text: We tested UA and all 14 newly synthesized UA derivatives for their TDP1 inhibitory properties by measuring their IC50 values using a real-time fluorescent assay. […] Compounds 10a,b are sulfoxide analogs of 7g,h.
Human recombinant tyrosyl-DNA phosphodiesterase 1 (TDP1) and human recombinant poly(ADP-ribose)-polymerase1 (PARP1) were expressed in the E. coli system and purified as described.
The biosensor (5′-[FAM] AAC GTC AGGGTC TTC C [BHQ]-3′) was synthesized in the Laboratory of Nucleic Acid Chemistry at the Institute of Chemical Biology and Fundamental Medicine (Novosibirsk, Russia) and was used for TDP1 enzyme activity real-time fluorescence detection. The reaction mixture (200 μL) contained a TDP1 reaction buffer (50 mM Tris-HCl, pH 8.0, 50 mM NaCl, and 7 mM β-mercaptoethanol), 50 nM oligonucleotide, varied concentrations of the tested compounds, and purified TDP1 in a final concentration 1.5 nM. The reaction mixtures were incubated at a constant temperature of 26 °C in a POLARstar OPTIMA fluorimeter (BMG LABTECH, GmbH, Ortenberg, Germany). Fluorescence intensity was measured (Ex485/Em520 nm) every 1 min for 10 min. The average values of the half maximal inhibitory concentration (IC50) were determined using an eleven-point concentration response curve and calculated using MARS Data Analysis 2.0 (BMG LABTECH). The 50% inhibitory concentration (IC50) was defined as the concentration of the compound that inhibited 50% of the enzyme activity when compared to the untreated controls. At least three independent experiments were carried out to obtain the IC50 values. To determine the kinetic parameters of the TDP1 enzymatic reaction, the apparent maximum rate of enzymatic reaction (Vmax), Michaelis constant (KM), possible inhibition mechanism, and steady-state kinetic experiments were carried out at 5 fixed concentrations of the substrate, with variation in the inhibitor concentrations. The standard reaction mixtures (200 μL) contained reaction buffer components; 50 nM, 100 nM, 200 nM, 500 nM, or 1000 nM substrate; an inhibitor; and 1.5 nM recombinant human TDP1. The initial kinetic curves were obtained in three independent experiments and statistically processed in OriginPro 8.6.0 (OriginLab, Northampton, MA, USA).

Row | Compound | TDP2 inhibition (in words) (TDP2) | IC50 (TDP1; real-time fluorescent assay, 1.5 nM TDP1, 50 nM oligonucleotide, read-out: IC50 (TDP1)) [nM] | IC50 (TDP1) [nM] | TDP1 inhibition (in words) (TDP1; in the concentration range of the derivatives' IC50)
1 | CC(=O)C1=C(O)C=C2Oc3c(C(=O)C[S+]([O-])c4nc5ccccc5s4)c(O)c(C)c(O)c3[C@@]2(C)C1=O (stereo partly drawn) [10a, (2R)-4-acetyl-10-[2-(1,3-benzothiazole-2-sulfinyl)acetyl]-5,11,13-trihydroxy-2,12-dimethyl-8-oxatricyclo[7.4.0.0^2,7]trideca-1(13),4,6,9,11-pentaen-3-one] | moderately inhibit TDP2 | 2100 ± 200 | – | –
2 | CC(=O)c1c(O)c(C)c(O)c2c1OC1=CC(=O)C(C(C)=O)C(=O)C12C (centres unmarked) [UA, usnic acid] | did not inhibit TDP2 | – | > 50000 | does not inhibit TDP1
